Assay results from publication PMC7026418, “The kinase polypharmacology landscape of clinical PARP inhibitors” (Scientific Reports, 2020).
Where two headings read alike, the source gives them in different places.

Assays:
Test in all cases: biochemical
Set-up in all cases: DiscoveRx KINOMEscan active site-directed competition binding; percent of control kinase bound to immobilised ligand
CSF1R = CSF1R (Homo sapiens, UniProt P07333)
FGR = FGR (Homo sapiens, UniProt P09769)
MARK4 = target: T1, MARK4 (Homo sapiens, UniProt Q96L34)
T1 sequence (Q96L34 1-752): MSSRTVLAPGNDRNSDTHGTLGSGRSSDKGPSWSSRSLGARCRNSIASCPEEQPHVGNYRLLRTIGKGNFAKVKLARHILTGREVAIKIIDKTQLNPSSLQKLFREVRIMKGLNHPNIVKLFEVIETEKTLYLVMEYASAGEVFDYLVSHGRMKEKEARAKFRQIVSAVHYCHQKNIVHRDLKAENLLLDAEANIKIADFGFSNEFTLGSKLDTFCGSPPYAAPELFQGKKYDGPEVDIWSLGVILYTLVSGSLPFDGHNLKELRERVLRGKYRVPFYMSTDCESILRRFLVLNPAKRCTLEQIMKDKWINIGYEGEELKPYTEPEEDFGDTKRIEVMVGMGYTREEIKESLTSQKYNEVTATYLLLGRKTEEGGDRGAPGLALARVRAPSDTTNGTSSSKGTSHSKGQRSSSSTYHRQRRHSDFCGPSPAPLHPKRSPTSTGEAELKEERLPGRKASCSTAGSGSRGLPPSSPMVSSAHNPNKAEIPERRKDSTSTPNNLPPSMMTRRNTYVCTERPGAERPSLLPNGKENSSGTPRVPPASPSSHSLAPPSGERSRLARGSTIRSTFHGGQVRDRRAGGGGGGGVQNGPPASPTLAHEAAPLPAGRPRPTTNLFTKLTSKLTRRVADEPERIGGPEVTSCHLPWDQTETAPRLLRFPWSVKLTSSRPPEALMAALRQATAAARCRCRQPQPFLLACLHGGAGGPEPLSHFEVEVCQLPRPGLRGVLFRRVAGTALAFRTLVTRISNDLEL

PRKG2 = target: T2, PRKG2 (Homo sapiens, UniProt Q13237)
T2 sequence (Q13237 1-762): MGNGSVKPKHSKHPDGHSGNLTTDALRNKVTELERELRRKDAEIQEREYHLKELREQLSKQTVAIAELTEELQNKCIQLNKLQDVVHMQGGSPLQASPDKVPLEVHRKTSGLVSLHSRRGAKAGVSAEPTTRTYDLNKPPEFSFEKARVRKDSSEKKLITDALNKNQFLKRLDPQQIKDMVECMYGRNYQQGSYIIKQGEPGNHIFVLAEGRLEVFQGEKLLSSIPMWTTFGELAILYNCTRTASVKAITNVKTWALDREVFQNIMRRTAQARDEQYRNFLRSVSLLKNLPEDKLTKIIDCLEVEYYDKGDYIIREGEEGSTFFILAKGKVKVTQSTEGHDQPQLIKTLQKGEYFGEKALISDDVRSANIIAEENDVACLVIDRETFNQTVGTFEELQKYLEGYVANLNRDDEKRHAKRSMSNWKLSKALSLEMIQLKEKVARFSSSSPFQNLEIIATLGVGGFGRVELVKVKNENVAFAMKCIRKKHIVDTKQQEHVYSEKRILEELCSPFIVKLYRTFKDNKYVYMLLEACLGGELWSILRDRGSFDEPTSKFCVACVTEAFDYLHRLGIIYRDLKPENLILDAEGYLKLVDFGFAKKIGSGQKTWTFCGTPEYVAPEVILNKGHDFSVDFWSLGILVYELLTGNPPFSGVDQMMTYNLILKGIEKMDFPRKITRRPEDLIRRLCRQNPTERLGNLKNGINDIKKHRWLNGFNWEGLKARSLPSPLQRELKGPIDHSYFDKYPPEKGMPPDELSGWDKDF

RET(V804M) = RET(V804M) (Homo sapiens, UniProt P07949, V804M)
DYRK1B = DYRK1B (Homo sapiens, UniProt Q9Y463); conditions: for remaining binding at 10 µM: binding competition, % of control
Experimental: (§1) The DiscoveRx KinomeScan platform (https://www.discoverx.com), utilizing an in vitro active site-directed competition binding assay, was used to quantitatively measure interactions between the four clinical PARP inhibitors and their largest available kinase panel. At the time when the assays were performed (date: 29/11/2016), 468 in vitro binding assays were available, corresponding to 392 unique human kinases (76% of the human kinome)[39] (Supplementary Table 5). To follow up the computational analysis, we performed a comprehensive in vitro kinome screen. To do this we employed the DiscoveRx (https://www.discoverx.com) KinomeScan in vitro binding technology[37],[38] that has been widely used for kinome profiling in drug discovery. At the time of conducting our screen, this kinome panel was the largest commercially available and comprised 468 in vitro binding assays corresponding to 392 unique human kinases (76% of the human kinome)[39] (Supplementary Table 5). Also included were assays comprising mutated, deleted, phosphorylated or autoinhibited forms of proteins (n = 63), secondary or pseudokinase domains (n = 8), non-human isoforms (n = 3) and CDK complexes with different cyclins (n = 2) (Supplementary Table 5). The assays were performed at a single relatively high concentration of 10 μM to identify initially both low and high potency off-targets. The results of our use of the in vitro binding assay for kinome profiling reveal marked differences between the kinase polypharmacology of PARP inhibitors. […] The binding technology used involves a competition assay, defining activity as ≥65% of the kinase being competed off an immobilised ligand at 10 μM[38].

LTK = LTK (Homo sapiens, UniProt P29376); conditions: for remaining binding at 10 µM: binding competition, % of control
Experimental: as §1

STK33 = STK33 (Homo sapiens, UniProt Q9BYT3); conditions: for remaining binding at 10 µM: binding competition, % of control
Experimental: as §1

[1] = read-out: Niraparib (MK-4827) / %Ctrl @ 10000nM
[2] = read-out: Niraparib (MK-4827) / %Ctrl @ 10000nM, binding competition
[3] = read-out: Olaparib / %Ctrl @ 10000nM
[4] = read-out: Rucaparib / %Ctrl @ 10000nM, binding competition, % of control
[5] = read-out: Rucaparib / %Ctrl @ 10000nM, binding competition
[6] = read-out: Talazoparib (BMN 673) / %Ctrl @ 10000nM

Sequence of LTK (P29376 whole entry): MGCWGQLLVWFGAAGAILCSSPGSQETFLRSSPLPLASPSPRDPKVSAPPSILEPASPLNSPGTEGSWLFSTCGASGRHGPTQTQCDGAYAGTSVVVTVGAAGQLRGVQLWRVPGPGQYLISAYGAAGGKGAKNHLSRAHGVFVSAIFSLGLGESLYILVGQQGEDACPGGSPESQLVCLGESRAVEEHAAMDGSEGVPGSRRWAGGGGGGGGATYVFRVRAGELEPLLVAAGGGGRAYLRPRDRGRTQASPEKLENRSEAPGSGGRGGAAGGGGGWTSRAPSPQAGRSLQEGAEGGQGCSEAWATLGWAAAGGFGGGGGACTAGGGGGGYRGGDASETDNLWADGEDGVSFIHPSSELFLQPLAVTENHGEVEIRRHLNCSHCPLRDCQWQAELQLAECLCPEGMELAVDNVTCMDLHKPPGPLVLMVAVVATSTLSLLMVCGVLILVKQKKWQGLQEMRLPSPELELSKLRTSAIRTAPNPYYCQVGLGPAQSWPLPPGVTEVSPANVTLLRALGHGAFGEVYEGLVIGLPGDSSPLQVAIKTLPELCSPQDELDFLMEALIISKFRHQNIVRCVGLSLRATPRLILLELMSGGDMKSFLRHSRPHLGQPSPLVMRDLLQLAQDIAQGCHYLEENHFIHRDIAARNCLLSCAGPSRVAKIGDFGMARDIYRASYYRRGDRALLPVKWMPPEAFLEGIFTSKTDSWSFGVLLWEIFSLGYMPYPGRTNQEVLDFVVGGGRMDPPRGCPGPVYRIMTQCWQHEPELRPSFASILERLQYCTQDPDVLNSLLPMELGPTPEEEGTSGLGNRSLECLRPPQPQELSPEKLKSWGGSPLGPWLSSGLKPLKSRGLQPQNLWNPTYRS
Sequence of DYRK1B (Q9Y463 whole entry): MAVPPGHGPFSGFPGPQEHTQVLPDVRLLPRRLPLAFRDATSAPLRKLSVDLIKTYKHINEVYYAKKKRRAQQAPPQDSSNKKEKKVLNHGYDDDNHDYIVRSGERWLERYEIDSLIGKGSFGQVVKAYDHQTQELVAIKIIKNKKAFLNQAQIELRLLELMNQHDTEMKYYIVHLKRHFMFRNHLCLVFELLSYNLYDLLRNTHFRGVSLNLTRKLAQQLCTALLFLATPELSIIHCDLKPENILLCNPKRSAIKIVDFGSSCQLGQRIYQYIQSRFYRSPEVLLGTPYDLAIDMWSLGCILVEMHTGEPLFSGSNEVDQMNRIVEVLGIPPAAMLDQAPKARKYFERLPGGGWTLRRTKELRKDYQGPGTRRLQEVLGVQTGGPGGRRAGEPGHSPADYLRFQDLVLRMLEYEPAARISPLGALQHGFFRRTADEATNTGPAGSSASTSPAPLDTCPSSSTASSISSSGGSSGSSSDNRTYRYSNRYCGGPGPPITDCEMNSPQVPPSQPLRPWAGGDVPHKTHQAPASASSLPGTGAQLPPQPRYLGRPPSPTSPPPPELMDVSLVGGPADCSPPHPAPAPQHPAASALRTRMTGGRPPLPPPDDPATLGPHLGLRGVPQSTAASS
Sequence of CSF1R (P07333 whole entry): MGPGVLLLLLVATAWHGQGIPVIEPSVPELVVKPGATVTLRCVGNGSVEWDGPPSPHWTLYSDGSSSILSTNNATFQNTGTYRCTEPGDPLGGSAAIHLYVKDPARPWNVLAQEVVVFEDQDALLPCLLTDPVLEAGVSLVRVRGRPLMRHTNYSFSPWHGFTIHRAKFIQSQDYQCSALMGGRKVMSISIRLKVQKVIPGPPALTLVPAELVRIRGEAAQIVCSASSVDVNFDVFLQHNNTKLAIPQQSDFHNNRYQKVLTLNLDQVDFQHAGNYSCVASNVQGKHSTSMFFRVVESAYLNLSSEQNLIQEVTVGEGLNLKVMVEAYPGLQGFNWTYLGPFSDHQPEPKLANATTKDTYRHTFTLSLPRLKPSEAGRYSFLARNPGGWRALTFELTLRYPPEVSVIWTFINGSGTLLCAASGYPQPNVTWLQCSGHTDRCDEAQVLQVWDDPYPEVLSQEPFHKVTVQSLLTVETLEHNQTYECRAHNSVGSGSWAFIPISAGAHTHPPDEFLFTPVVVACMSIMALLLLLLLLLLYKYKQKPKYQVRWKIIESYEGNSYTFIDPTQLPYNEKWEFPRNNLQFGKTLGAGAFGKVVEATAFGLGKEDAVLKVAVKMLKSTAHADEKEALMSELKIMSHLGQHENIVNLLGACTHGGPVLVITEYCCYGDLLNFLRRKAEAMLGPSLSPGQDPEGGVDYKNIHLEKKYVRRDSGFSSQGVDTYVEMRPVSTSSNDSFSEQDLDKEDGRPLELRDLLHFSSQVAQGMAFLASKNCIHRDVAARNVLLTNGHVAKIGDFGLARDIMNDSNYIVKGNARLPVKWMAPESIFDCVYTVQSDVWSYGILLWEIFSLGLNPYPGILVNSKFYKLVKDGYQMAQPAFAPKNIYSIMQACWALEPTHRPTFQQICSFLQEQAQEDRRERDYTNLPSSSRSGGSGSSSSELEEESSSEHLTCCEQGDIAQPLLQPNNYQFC
Sequence of FGR (P09769 whole entry): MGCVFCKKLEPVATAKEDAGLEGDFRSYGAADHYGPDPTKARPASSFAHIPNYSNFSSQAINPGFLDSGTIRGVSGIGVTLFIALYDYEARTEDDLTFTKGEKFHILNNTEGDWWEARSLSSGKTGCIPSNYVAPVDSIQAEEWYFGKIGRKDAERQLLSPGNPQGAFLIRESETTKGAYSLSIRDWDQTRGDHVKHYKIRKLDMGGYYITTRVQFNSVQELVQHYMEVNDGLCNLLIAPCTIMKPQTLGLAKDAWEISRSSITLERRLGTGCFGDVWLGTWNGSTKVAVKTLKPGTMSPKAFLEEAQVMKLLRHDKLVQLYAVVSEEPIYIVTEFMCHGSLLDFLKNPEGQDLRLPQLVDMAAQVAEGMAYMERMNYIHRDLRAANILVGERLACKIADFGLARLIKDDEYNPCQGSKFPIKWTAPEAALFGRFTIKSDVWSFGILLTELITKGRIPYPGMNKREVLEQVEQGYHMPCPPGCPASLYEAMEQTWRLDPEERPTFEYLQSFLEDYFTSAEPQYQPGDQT
Sequence of STK33 (Q9BYT3 whole entry): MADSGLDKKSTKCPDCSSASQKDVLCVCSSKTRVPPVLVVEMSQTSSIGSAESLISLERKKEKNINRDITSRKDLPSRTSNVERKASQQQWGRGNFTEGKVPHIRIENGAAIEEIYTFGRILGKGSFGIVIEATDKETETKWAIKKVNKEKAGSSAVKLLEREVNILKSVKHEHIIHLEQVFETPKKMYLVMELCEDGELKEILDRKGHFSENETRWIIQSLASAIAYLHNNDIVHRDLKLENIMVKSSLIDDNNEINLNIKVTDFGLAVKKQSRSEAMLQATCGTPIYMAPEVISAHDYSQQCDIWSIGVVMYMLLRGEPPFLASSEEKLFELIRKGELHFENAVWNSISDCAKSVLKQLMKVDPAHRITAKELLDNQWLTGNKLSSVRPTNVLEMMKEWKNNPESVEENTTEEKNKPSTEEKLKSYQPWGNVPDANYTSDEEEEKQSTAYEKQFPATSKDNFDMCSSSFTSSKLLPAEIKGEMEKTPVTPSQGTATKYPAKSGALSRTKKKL
Sequence of RET(V804M) (P07949 whole entry V804M): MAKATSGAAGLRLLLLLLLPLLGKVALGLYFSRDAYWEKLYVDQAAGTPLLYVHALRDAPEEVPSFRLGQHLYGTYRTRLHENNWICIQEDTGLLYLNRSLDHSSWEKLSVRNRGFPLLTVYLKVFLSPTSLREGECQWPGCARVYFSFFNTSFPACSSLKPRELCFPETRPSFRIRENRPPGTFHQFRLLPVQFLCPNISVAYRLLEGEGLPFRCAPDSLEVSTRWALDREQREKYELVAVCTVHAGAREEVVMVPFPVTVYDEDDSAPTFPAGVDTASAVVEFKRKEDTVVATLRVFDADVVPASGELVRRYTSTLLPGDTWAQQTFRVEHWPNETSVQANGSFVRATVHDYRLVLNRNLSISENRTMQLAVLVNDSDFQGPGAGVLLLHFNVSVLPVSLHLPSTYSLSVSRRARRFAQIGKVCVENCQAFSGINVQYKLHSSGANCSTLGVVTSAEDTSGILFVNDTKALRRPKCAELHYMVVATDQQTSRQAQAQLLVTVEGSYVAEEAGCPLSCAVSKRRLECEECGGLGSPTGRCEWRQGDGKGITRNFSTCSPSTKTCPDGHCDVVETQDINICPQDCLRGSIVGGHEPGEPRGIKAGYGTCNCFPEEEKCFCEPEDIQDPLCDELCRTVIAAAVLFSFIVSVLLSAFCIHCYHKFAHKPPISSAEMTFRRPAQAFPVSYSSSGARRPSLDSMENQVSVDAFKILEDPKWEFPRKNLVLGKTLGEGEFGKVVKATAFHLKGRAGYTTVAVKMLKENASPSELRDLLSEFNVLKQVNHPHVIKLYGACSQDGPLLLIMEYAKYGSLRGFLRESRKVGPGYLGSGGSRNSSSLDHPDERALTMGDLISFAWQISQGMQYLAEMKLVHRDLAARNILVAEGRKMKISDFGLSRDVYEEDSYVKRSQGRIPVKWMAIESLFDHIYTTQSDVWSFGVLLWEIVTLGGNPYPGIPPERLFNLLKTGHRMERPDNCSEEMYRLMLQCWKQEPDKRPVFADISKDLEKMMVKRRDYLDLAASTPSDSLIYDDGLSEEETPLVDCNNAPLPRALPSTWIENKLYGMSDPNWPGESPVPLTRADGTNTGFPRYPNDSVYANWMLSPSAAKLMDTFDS

Work on NC(=O)c1cccc2cn(-c3ccc([C@@H]4CCCNC4)cc3)nc12 [Niraparib] yielded a percent of control binding at 10 µM (CSF1R; [1]) of 91%, a percent of control binding at 10 µM (FGR; [1]) of 85% and a percent of control binding at 10 µM (MARK4; [1]) of 98%. The percent of control binding at 10 µM (PRKG2; [1]) was 97%, the percent of control binding at 10 µM (RET(V804M); [1]) was 79% and the percent of control kinase binding at 10 µM (DYRK1B; [2]) was 0%. For the same molecule, the percent of control kinase binding at 10 µM (LTK; [2]) was 71%.

With O=C(c1cc(Cc2n[nH]c(=O)c3ccccc23)ccc1F)N1CCN(C(=O)C2CC2)CC1 [Olaparib] the percent of control binding at 10 µM (CSF1R; [3]) was 95%, the percent of control binding at 10 µM (FGR; [3]) was 92% and the percent of control binding at 10 µM (MARK4; [3]) was 88%. For the same molecule, the percent of control binding at 10 µM (PRKG2; [3]) was 85%, the percent of control binding at 10 µM (RET(V804M); [3]) was 90% and the remaining binding at 10 µM (DYRK1B; [3]) was 97%. It also gave a remaining binding at 10 µM (LTK; [3]) of 93% and a remaining binding at 10 µM (STK33; [3]) of 100%.

CNCc1ccc(-c2[nH]c3cc(F)cc4c3c2CCNC4=O)cc1 [Rucaparib] showed a percent of control binding at 10 µM (CSF1R; [4]) of 94%, a percent of control binding at 10 µM (FGR; [4]) of 96% and a percent of control binding at 10 µM (MARK4; [4]) of 86%. For the same molecule, the percent of control binding at 10 µM (PRKG2; [4]) was 60%, the percent of control binding at 10 µM (RET(V804M); [4]) was 99% and the percent of control kinase binding at 10 µM (DYRK1B; [5]) was 5.7%. For the same molecule, the percent of control kinase binding at 10 µM (LTK; [5]) was 89% and the percent of control kinase binding at 10 µM (STK33; [5]) was 89%.

In the case of Cn1ncnc1[C@H]1c2n[nH]c(=O)c3cc(F)cc(c23)N[C@@H]1c1ccc(F)cc1 [Talazoparib], the percent of control binding at 10 µM (CSF1R; [6]) is reported as 99%, the percent of control binding at 10 µM (FGR; [6]) is reported as 99% and the percent of control binding at 10 µM (MARK4; [6]) is reported as 100%. The percent of control binding at 10 µM (PRKG2; [6]) was 100%, the percent of control binding at 10 µM (RET(V804M); [6]) was 97% and the remaining binding at 10 µM (DYRK1B; [6]) was 95%. The remaining binding at 10 µM (LTK; [6]) was 91% and the remaining binding at 10 µM (STK33; [6]) was 99%.
